How the values were obtained:
human TRPV2 (hTRPV2) [1] = target: T1, human TRPV2 (hTRPV2) (Homo sapiens, UniProt Q9Y5S1); settings: cited from earlier work
T1 sequence (Q9Y5S1 1-764): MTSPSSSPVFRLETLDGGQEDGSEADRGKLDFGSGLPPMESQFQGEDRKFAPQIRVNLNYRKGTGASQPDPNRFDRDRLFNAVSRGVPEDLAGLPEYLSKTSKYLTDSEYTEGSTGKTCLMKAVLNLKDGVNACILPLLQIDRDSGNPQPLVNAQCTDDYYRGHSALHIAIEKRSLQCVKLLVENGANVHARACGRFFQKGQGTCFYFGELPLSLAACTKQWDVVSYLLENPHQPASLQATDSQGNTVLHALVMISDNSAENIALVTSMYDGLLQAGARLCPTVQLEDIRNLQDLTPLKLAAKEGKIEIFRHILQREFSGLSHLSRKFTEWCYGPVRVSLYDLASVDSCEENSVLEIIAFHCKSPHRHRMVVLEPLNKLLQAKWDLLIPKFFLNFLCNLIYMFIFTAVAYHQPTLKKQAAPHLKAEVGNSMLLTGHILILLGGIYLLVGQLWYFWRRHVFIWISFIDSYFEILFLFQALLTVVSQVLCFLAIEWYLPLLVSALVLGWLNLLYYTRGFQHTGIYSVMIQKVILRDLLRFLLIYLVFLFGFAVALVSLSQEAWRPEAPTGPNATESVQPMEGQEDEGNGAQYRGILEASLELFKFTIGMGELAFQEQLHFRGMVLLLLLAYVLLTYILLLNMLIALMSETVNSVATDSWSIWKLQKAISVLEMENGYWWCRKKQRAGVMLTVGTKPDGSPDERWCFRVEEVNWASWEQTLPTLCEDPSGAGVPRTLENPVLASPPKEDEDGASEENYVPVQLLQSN

human TRPV2 (hTRPV2) [2] = target: T1, human TRPV2 (hTRPV2); test: CaCl2 (5 mM)-induced increase in [Ca2+]i in CHO cells expressing hTRPV2; format: cell-based; set-up: expressed in transfected cells; host or cells: CHO cells; settings: compound 15 μM
Procedure: Figure 4 Effects of inhibitor compounds on the Ca^2+ response of cells expressing hTRPV1, hTRPV2, or hTRPC1 (A) Effect of compounds on CaCl2 (5 mM)-induced peak fluorescence ratio in non-transfected (nt) or hTRPV2-transfected CHO cells. The extracellular Ca^2+-dependent increase in the ratio of fura-2 fluorescence intensity at 340/380 nm (ΔR, 2 min after addition of chemicals) was plotted as ΔR/R0 after normalising to the initial fluorescence ratio (R0). […] Solid bar, no inhibitor. (B) Effect of compounds on 2-APB (1 mM)/high extracellular CaCl2-induced peak fluorescence ratio in nt or hTRPV1-transfected HEK293 cells. […] (C) Effect of compounds on store-operated Ca^2+ entry in nt or hTRPC1-transfected HEK293 cells. Cells were treated with the endoplasmic reticulum Ca^2+ pump inhibitor thapsigargin and exposed to CaCl2 and the indicated compounds. ΔR was measured 2 min after the addition of CaCl2. […]
[Ca^2+]i was measured by a ratiometric fluorescence method as previously described. […] Fura-2-AM fluorescence was measured using an Aquacosmos fluorescence image processor (Hamamatsu Photonics, Hamamatsu, Japan). The time-course data are presented as the ratio of fluorescence at an excitation wavelength of 340 nm to that at 380 nm. The increase in the fluorescence ratio induced by the TRPV2 agonist 2-APB or high extracellular Ca^2+ (ΔR) was normalized to the initial ratio (R0) before stimulation. […]

[3] = target: T2, human Cav1.2/β2/α2δ1 L-type calcium channel (Homo sapiens, UniProt Q13936); test: L-type Ca2+ current in human Cav1.2/β2/α2δ1 expressing CHO cells (patch clamp); format: cell-based; settings: CHO cells expressing human Cav1.2/β2/α2δ1 calcium channel, pH 7.4, 15 μM lumin, n = 3, read-out: L-type current, % of control
T2 construct: host or cells: CHO cells (purchased recombinant cell line)
Procedure: Figure 8 Effect of lumin on the Ca^2+ response and channel activity in HEK293 cells expressing mTRPV2 (A) Inhibition of the 2-APB-induced increase in [Ca^2+]i in HEK293 cells expressing mTRPV2 by lumin. Cells were loaded with fura-2-AM and stimulated with 2-APB (0.3 mM) in the absence or presence of the indicated concentrations of lumin. The fluorescence ratio was measured by a microplate reader and normalized by the maximal value. Data are shown as mean ± SD (n = 5). (B) Lumin blocked the mTRPV2 channel. The current values at −100 mV measured by an every-2-second ramp protocol were plotted. After the current activated by 200 μM 2-APB at pH 6.5 became stable, a mixture of 15 μM lumin and 2-APB was applied to the cells. (C) Effect of lumin on the current-voltage relationship of 2-APB-evoked current. (D) Concentration-dependence of lumin for the inhibition of mTRPV2 current. Data are shown as mean ± SD (n = 3–5) (E) Effect of lumin (15 μM) on L-type Ca^2+ channel activity. The current waveforms of the control cells and the cells 11 minutes after application of 15 μM lumin were superimposed. […]
For the measurement of L-type Ca^2+ currents, human Cav1.2/β2/α2δ1 calcium channel expressing CHO cells were purchased from ChanTest (Cleveland, OH, USA). […] The data were analysed and plotted with Clampfit 9 (Molecular Devices, LLC, Sunnyvale, CA, USA). […]

T2 sequence (Q13936 whole entry): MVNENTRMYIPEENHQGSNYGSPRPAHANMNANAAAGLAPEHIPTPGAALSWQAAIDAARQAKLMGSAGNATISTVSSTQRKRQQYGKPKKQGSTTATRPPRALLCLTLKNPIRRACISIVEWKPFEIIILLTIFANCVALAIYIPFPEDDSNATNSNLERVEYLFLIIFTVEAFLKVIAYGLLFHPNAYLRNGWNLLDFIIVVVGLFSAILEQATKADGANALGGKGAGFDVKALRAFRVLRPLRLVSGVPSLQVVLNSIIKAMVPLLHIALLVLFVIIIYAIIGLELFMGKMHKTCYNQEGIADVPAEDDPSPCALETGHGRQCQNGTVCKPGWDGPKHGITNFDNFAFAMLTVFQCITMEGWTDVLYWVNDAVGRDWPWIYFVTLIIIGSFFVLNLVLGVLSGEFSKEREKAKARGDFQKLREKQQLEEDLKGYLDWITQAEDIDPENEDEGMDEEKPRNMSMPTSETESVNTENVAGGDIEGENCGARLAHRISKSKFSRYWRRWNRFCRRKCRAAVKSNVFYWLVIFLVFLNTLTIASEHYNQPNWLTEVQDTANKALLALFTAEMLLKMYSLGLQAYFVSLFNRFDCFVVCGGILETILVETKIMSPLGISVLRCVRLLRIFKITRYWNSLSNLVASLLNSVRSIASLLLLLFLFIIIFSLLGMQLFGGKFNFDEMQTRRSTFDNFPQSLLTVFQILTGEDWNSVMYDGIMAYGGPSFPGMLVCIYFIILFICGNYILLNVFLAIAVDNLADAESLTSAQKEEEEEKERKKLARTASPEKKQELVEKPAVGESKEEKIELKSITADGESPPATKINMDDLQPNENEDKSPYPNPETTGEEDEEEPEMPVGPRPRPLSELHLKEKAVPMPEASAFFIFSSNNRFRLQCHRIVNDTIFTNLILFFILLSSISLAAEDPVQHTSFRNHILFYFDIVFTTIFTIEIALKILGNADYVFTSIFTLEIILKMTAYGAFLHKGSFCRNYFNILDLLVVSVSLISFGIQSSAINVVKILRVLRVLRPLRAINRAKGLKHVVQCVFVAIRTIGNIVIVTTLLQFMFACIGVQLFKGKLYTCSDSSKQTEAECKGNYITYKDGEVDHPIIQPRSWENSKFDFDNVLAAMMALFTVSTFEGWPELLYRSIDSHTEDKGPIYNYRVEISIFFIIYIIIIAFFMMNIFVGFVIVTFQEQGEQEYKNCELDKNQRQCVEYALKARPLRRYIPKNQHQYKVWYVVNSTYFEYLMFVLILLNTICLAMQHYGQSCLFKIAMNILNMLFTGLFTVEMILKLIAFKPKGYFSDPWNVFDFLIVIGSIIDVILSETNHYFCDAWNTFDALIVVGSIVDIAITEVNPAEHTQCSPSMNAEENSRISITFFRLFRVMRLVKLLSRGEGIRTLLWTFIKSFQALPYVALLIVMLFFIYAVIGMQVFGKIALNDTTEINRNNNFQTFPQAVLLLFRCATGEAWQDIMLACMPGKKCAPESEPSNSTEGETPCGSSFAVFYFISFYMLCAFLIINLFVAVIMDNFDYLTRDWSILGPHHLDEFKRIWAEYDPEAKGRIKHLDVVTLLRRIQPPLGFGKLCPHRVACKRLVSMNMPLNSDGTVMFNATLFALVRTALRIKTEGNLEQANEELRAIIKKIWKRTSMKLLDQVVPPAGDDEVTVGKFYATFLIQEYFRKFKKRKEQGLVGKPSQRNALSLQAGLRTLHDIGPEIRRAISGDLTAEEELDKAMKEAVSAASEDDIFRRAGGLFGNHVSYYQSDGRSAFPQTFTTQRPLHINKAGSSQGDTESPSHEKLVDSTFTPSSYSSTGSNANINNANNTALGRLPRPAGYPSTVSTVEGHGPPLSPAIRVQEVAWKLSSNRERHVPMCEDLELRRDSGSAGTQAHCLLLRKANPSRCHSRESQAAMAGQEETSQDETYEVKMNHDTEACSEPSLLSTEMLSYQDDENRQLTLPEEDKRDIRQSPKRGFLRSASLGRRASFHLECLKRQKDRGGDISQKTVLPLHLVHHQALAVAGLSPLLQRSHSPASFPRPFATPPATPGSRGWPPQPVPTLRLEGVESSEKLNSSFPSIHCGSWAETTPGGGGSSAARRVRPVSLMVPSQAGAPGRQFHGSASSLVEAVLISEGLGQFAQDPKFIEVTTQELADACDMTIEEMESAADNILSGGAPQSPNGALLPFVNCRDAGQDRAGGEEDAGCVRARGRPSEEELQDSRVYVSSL
T2 sequence (Q08289 whole entry partner): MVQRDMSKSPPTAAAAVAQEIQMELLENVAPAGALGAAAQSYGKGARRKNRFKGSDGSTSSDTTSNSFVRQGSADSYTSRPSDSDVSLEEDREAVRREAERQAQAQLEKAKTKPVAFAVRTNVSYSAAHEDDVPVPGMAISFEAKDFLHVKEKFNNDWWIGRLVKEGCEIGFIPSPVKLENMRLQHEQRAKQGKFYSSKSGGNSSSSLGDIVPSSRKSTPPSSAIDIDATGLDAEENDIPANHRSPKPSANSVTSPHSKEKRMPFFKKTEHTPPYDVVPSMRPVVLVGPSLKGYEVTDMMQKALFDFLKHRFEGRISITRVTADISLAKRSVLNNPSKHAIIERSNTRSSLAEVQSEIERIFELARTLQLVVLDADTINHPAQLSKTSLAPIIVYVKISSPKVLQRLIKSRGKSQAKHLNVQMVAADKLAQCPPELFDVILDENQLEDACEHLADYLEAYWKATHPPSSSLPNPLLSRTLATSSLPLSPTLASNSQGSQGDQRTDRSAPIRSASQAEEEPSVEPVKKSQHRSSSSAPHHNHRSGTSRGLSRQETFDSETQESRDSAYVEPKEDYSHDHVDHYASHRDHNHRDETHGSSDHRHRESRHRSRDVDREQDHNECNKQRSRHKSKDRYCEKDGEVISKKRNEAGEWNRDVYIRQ
T2 sequence (P54289 25-956 partner limits assumed): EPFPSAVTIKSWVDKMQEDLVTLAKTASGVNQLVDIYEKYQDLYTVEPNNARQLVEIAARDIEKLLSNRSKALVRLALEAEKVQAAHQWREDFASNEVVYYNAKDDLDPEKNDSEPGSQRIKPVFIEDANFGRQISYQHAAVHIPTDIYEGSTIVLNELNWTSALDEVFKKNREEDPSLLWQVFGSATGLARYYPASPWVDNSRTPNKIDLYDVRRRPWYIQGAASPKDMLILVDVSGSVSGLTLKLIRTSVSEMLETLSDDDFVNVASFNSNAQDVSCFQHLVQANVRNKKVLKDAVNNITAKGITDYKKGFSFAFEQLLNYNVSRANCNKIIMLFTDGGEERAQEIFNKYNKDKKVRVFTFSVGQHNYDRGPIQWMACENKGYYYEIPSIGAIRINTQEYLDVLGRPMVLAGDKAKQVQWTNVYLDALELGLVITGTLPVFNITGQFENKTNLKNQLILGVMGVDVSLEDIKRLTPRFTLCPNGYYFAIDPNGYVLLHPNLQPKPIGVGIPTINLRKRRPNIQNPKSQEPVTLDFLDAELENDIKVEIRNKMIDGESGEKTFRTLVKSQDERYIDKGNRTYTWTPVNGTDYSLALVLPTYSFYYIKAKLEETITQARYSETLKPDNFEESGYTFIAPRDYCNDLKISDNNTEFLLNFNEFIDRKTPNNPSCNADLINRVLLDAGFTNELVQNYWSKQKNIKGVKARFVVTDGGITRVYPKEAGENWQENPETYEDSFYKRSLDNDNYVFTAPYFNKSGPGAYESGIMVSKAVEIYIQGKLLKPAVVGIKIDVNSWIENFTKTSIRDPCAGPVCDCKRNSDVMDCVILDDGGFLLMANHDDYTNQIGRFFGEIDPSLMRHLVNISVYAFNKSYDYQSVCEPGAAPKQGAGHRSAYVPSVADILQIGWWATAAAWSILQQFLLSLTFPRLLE
T2 sequence (P54289 957-1103 partner limits assumed): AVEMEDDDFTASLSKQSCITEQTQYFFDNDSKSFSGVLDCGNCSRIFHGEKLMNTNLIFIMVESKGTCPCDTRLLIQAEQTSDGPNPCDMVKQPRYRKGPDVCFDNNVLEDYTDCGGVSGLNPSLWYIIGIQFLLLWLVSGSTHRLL

Compound	effect on Ca2+ influx in response to CaCl2 exposure (human TRPV2 (hTRPV2) [2])	further results
NCCOB(c1ccccc1)c1ccccc1 [2-APB, 2-aminoethoxydiphenylborate]	–	response of hTRPV2 to 2-APB (human TRPV2 (hTRPV2) [1]): unresponsive
COc1cc(/C=C(\C#N)C(=O)Nc2ccccc2C(=O)O)cc(Cl)c1OC [A3, 2-[(2E)-3-(3-Chloro-4,5-dimethoxyphenyl)-2-cyanoprop-2-enoylamino]benzoic acid]	markedly inhibited	–
COc1cccc(OCCn2cc(/C=N/n3cnnc3)c3ccccc32)c1 [B6, 1-{2-[3-((1E)-2-(1,2,4-triazol-4-yl)-2-azavinyl)indolyl]ethoxy}-3-methoxybenzene]	not	–
CCN1C=CC(=CC=C(C=Cc2cc[n+](CC)c3ccccc23)c2cc[n+](CC)c3ccccc23)c2ccccc21.[I-].[I-] [lumin, 4,4′-[3-[2-[1-ethyl-4(1H)-quinolinylidene]ethylidene]-1-propene-1,3-diyl]bis(1-ethylquinolinium) diiodide]	–	activity at 11 min, 15 μM [3]: 96.6 ± 8.7%
